Values of other authors in patent US5413991A (Ajinomoto Co., Inc., priority 1991, dated 1995).

How the values were obtained:
[1] = system: chitinase of pathogenic fungi such as Candida albicans; conditions: background statement; cited from earlier work
[2] = biological target: chitinase from baker's yeast (Saccharomyces cerevisiae) (Saccharomyces cerevisiae, UniProt P29029); conditions: background statement; cited from earlier work
chitinase from baker's yeast (Saccharomyces cerevisiae), sequence (P29029 21-562): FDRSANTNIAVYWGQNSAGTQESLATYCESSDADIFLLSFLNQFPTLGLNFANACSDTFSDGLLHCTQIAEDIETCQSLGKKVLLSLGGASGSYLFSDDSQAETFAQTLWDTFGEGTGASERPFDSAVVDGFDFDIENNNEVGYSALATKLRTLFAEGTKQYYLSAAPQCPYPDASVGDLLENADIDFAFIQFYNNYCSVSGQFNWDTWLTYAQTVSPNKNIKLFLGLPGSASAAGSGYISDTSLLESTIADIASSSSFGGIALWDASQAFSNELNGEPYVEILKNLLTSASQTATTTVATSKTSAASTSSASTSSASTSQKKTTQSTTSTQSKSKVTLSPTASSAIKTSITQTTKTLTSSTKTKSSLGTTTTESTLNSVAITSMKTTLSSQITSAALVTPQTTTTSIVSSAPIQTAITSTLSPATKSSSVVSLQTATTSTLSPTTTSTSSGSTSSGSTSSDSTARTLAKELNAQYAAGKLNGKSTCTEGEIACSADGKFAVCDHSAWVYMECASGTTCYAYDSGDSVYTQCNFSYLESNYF

## CNC1=N[C@@H]2[C@@H](O)[C@H](O[C@@H]3O[C@H](CO)[C@@H](O[C@@H]4O[C@H](CO)[C@@H](O)[C@@H](O)[C@H]4NC(C)=O)[C@@H](O)[C@H]3NC(C)=O)[C@@H](CO)[C@@H]2O1 [Demethylallosamidin, demethylallosamidin]
[1]
  Inhibitory activity against chitinase of Candida albicans: insufficient
[2]
  Inhibitory activity against chitinase from baker's yeast: potent inhibitory activity
